Reference: the NIST ThermoML archive (doi:10.1016/j.fluid.2014.09.031)
± gives the expanded uncertainty stated by the source.

Assay: xn = mol fraction of the nth substance listed
Conditions: 298.15 K, 101 kPa, Liquid, Vibrating tube method

CCC[NH3+].O=[N+]([O-])[O-] [propylammonium nitrate] + CN1CCCC1=O
Conditions | mass density [kg/m3]
x1 = 0.046 | 1038.38 ± 0.15
x1 = 0.167 | 1059.42 ± 0.24
x1 = 0.202 | 1064.53 ± 0.29
x1 = 0.263 | 1073.3 ± 0.37
x1 = 0.329 | 1081.53 ± 0.47
x1 = 0.406 | 1090.6 ± 0.61
x1 = 0.461 | 1096.52 ± 0.73
x1 = 0.551 | 1105.72 ± 0.94
x1 = 0.582 | 1108.68 ± 1
x1 = 0.628 | 1113.18 ± 1.1
x1 = 0.661 | 1116.42 ± 1.2
x1 = 0.721 | 1122.67 ± 1.4
x1 = 0.781 | 1128.74 ± 1.6
x1 = 0.808 | 1130.96 ± 1.7
x1 = 0.862 | 1136.73 ± 1.9

CN1CCCC1=O [N-methylpyrrolidone] + CCC[NH3+].O=[N+]([O-])[O-]
Conditions | mass density [kg/m3]
x2 = 0 | 1028.25 ± 0.13

CN1CCCC1=O [N-methylpyrrolidone] + CCCC[NH3+].O=[N+]([O-])[O-]
Conditions | mass density [kg/m3]
x2 = 0 | 1028.25 ± 0.13

CC[NH3+].O=[N+]([O-])[O-] [ethylammonium nitrate] + CN1CCCC1=O
Conditions | mass density [kg/m3]
x1 = 0.049 | 1040.83 ± 0.16
x1 = 0.138 | 1059.94 ± 0.22
x1 = 0.166 | 1065.8 ± 0.25
x1 = 0.223 | 1076.59 ± 0.32
x1 = 0.242 | 1080.27 ± 0.35
x1 = 0.292 | 1089.23 ± 0.43
x1 = 0.347 | 1098.75 ± 0.52
x1 = 0.413 | 1109.61 ± 0.66
x1 = 0.457 | 1116.43 ± 0.75
x1 = 0.48 | 1119.62 ± 0.81
x1 = 0.54 | 1129.36 ± 0.96
x1 = 0.592 | 1137.95 ± 1.1
x1 = 0.63 | 1143.72 ± 1.2
x1 = 0.684 | 1153.22 ± 1.4
x1 = 0.763 | 1167.68 ± 1.7
x1 = 0.83 | 1179.62 ± 2
x1 = 0.915 | 1195.54 ± 2.4
x1 = 0.981 | 1207.67 ± 2.7
x1 = 1 | 1210.76 ± 2.8

CCCC[NH3+].O=[N+]([O-])[O-] [n-butylammonium nitrate] + CN1CCCC1=O
Conditions | mass density [kg/m3]
x1 = 0.048 | 1036.44 ± 0.15
x1 = 0.108 | 1044.94 ± 0.19
x1 = 0.163 | 1051.72 ± 0.24
x1 = 0.267 | 1062.31 ± 0.36
x1 = 0.365 | 1069.91 ± 0.51
x1 = 0.439 | 1074.93 ± 0.65
x1 = 0.538 | 1080.43 ± 0.86
x1 = 0.67 | 1088.06 ± 1.2
x1 = 0.843 | 1097.2 ± 1.7
x1 = 1 | 1105.49 ± 2.3

CN1CCCC1=O [N-methylpyrrolidone] + CC[NH3+].O=[N+]([O-])[O-]
Conditions | mass density [kg/m3]
x2 = 0 | 1028.25 ± 0.13
